In patent US20260250412A1, “COMBINATION OF ANTIBODY-DRUG CONJUGATE AND ANTI-PD-1 ANTIBODY, AND USE THEREOF” (GENEQUANTUM HEALTHCARE (SUZHOU) CO., LTD., priority 2023, published 2026):

Legend:
[1] = tested on: Trop2 positive cancer cells NCI-N87; test: Cytotoxicity assay, CellTiter-Glo, 168 h, NCI-N87; assay type: cell-based, human
Protocol: (§1) In brief, 3000 to 5000 cells were plated in 96-well plates, and cells were able to attach overnight. Cells were treated with indicated drugs with various concentrations for 168 h. Cell viabilities were examined by CellTiter-Glo® Luminescent Cell Viability Assay, and percentage of cell viability was calculated.

[2] = tested on: human pancreatic cancer cells BxPC-3; test: Cell proliferation, CellTiter Glo, 96 h, BxPC-3; assay type: cell-based; details: BxPC-3, 96 h
Protocol: (§2) A positive control group was set: 100 μL Puromycin at a concentration of 10 μg/mL was added to each well. […] After the administration was completed, the cells were moved to the incubator and incubated for 96 h. The 96-well plate was removed from the 37° C. cell incubator and equilibrated to room temperature for 30 minutes. After the medium was discarded, 100 μL of DMEM and 50 μL of CellTiter Glo reagent were added to each well, and the cells were shaken in the dark at 200 rpm for 15 minutes, and the luminescent signal reflecting cell viability was detected by a microplate reader.

[3] = tested on: human breast cancer BR-05-0028 model; test: In vivo efficacy, human breast cancer BR-05-0028 mouse xenograft tumor; set-up: species or system BALB/c nude mice
Protocol: II. The tumor diameter was measured with a vernier caliper and the tumor volume was calculated according to the formula V=0.5a×b^2 (where a is the longest diameter of the tumor and b is the shortest diameter of the tumor). […] Animals in each group were administered by tail vein injection, and the control group was given an equal volume of vehicle. […] T/C and TGI values were calculated using tumor volume. The calculation formula is as follows: T/C %=TRTV/CRTV×100% (TRTV: RTV of the treatment group; CRTV: RTV of the vehicle control group). The relative tumor volume (RTV) was calculated based on the results of tumor measurement, and the calculation formula was RTV=Vt/V0, where V0 was the average tumor volume measured at the time of grouping (i.e., D0), Vt was the average tumor volume at one measurement, and TRTV and CRTV took the same day of data.
The human breast cancer BR-05-0028 model (IHC 3±) was derived from tumor samples resected in clinical surgery. The tumor samples were inoculated into nude mice at the P0 generation, and the tumor tissue used in this example was the P5 generation. Tumor tissue with a volume of about 30 mm^3 was subcutaneously inoculated into the right back dorsum of SPF female BALB/c nude mice aged 6-8 weeks.

[4] = tested on: Trop2-positive cells BxPC-3 and Trop2-negative cells HepG2; test: Bystander killing in BxPC-3/HepG2 co-culture assay (BxPC-3:HepG2=4:1); assay type: cell-based, human; details: 10 nM, 96 h
Protocol: After the treatment, the cells were moved to the incubator and incubated for 96 h. After the incubation, cells were digested, and washed once with 1×PBS, then transferred to a flow tube, and centrifuged at 2000 rpm for 3 min. The supernatant was then discarded, and the cell amount and cell viability were detected. […] The cells were washed with 1×PBS, the supernatant was discarded after centrifugation, 200 μL of 5 μg/mL human IgG Fe antibody was added, and the resulting cells were continued to incubate at 4° C. for 30 min after mixing. Finally, the cells were washed with 1×PBS, the supernatant was discarded after centrifugation, and the cells were resuspended in PBS, detected by flow cytometry and analyzed by FlowJo software.

[5] = tested on: human pharyngeal squamous cells carcinoma FaDu; test: Cell proliferation, CellTiter Glo, 96 h, FaDu; assay type: cell-based
Protocol: as §2

[6] = tested on: MDA-MB-468 mouse xenograft tumor; test: In vivo efficacy, MDA-MB-468 mouse xenograft tumor; set-up: species or system BALB/c Nude mice; details: 4.5 mg/kg, intravenously
Protocol: The MDA-MB-468 tumor cells (ATCC, HTB-132) were maintained in vitro as a monolayer culture in L-15 medium supplemented with 10% fetal bovine serum and 1% Antibiotic-Antimycotic at 37° C. in an atmosphere of 0% CO2 in air. The cells growing in an exponential growth phase will be harvested and counted for tumor inoculation. For in vivo anti-tumor efficacy study, 10×10^6 MDA-MB-468 human breast cancer cells (Trop2 positive) in 0.2 mL of PBS with Matrigel (1:1) were inoculated subcutaneously in the right flank in BALB/c Nude mice. […] The tumor volume was measured twice weekly with a caliper. T/C and TGI values were calculated using tumor volume.

[7] = tested on: Trop2 positive cancer cells FaDu; test: Cytotoxicity assay, CellTiter-Glo, 168 h, FaDu; assay type: cell-based, human
Protocol: as §1

[8] = tested on: human gastric cancer cells NCI-N87; test: Cell proliferation, CellTiter Glo, 96 h, NCI-N87; assay type: cell-based; details: NCI-N87, 96 h
Protocol: Two thousand human pharyngeal squamous cells carcinoma FaDu with high TROP2 expression were seeded into 96-well plates in 100 μL of culture medium per well, and incubated overnight in a cell incubator at 37° C. and 5% CO2. […] A positive control group was set: 100 μL Puromycin at a concentration of 10 μg/mL was added to each well. A negative control group was set: 100 μL of complete medium of FaDu cells was added to each well. After the administration was completed, the cells were moved to the incubator and incubated for 96 h. The 96-well plate was removed from the 37° C. cell incubator and equilibrated to room temperature for 30 minutes. After the medium was discarded, 100 μL of DMEM and 50 μL of CellTiter Glo reagent were added to each well, and the cells were shaken in the dark at 200 rpm for 15 minutes, and the luminescent signal reflecting cell viability was detected by a microplate reader. The inhibitory effects of the tested drugs on the proliferation of human pharyngeal squamous cell carcinoma FaDu are as shown in FIG. 2 and Table 7.
The human pharyngeal squamous cells carcinoma FaDu in Example 2.1.1 were replaced with human gastric cancer cells NCI-N87 (100 μL per well containing 5000 cells), and the inhibitory effect of ADC-7 was evaluated using the same process.

[9] = Table 15, single dose, 5 mg/kg, Day 21

Substance: DS1062a
- IC50 [1]: 2.1 nM
- inhibition of proliferation (in words) [2]: could inhibit the proliferation of BxPC-3 cells
- IC50 ([2]; Table 8): 0.584 nM
- Tumor volume (mm^3) Day 21 ([3]; Table 15, single dose, 5 mg/kg): 8 ± 1 mm^3
- T/C (%) [3, 9]: 0.48%
- TGI (%) [3, 9]: 111.60%
- Tumor volume (mm^3) Day 0 ([3]; Table 15, single dose, 5 mg/kg, baseline at grouping): 171 ± 23 mm^3
- tumor growth inhibition (in words) ([3]; effect example 3.1.3, 5 mg/kg (ADC-1 also 10 mg/kg), after 21 days): able to significantly inhibit tumor growth
- Amount of cells (10^4) BxPC-3 ([4]; Table 4): 10.88 10^4
- Amount of cells (10^4) HepG2 ([4]; Table 4): 33.72 10^4
- Cell proportion (%) BxPC-3 ([4]; Table 4): 24.4%
- Cell proportion (%) HepG2 ([4]; Table 4): 75.6%
- Number of viable cells (10^4) ([4]; Table 4, whole co-culture): 44.6 10^4
- bystander killing effect (in words) ([4]; effect example 1.1): had bystander killing effects
- inhibition of proliferation (in words) [5]: could inhibit the proliferation of FaDu cells
- IC50 ([5]; Table 7): 0.551 nM
- Tumor volume (mm^3) on day 35 [6]: 9 ± 9 mm^3
- T/C (%) ([6]; day 35): 1.35%
- TGI (%) ([6]; day 35): 136.06%
- IC50 [7]: 0.17 nM
- inhibition of proliferation (in words) [8]: could inhibit the proliferation of NCI-N87 cells
- IC50 ([8]; Table 10): 1.26 nM
